Data published in ChEMBL document CHEMBL5725332, “Quinazoline derivative” (2017).

Assay: Luciferase Assay: Using ONE-Glo Luciferase Assay System (Promega Corporation, No. E6110), the luciferase activity of the cells in the wells was measured by a microplate reader (Synergy H1, BioTek Instruments, Inc.) An IC50 value was calculated from the luminescence intensity of each compound concentration, supposing that the luminescence intensity of a group with no addition of the compound and with Wnt-3a stimulation was 100%, and that the luminescence intensity of a group with no addition of the compound and with no Wnt-3a stimulation was 0%.
Conditions: Homo sapiens

**Q.** With Cc1nc2c(Br)cc(Nc3ncc4cccc(O[C@H]5CC[C@@H](O)CC5)c4n3)cc2[nH]1 as the compound, how does the IC50 read?
**A.** Its IC50 is “in the range around 2000 nM”.

**Q.** Which IC50 does the source give for O[C@H]1CC[C@@H](Oc2cccc3cnc(Nc4ccnc5cc(F)ccc45)nc23)CC1 here?
**A.** Its IC50 is “in the range around 650 nM”.

**Q.** Which IC50 does the source give for O[C@H]1CC[C@@H](Oc2cccc3cnc(Nc4ccc5nc(C(F)(F)F)[nH]c5c4)nc23)CC1 here?
**A.** Its IC50 is “in the range around 2000 nM”.

**Q.** Which IC50 does the source give for O[C@H]1CC[C@@H](Oc2cc(F)cc3cnc(Nc4ccc5nc[nH]c5c4)nc23)CC1 here?
**A.** Its IC50 is “in the range around 650 nM”.

**Q.** With O[C@H]1CC[C@@H](Oc2cccc3cnc(Nc4ccc5ncccc5c4)nc23)CC1 as the compound, how does the IC50 read?
**A.** The IC50 was “in the range around 650 nM”.

**Q.** With O[C@H]1CC[C@@H](Oc2c(Br)ccc3cnc(Nc4ccc5nc[nH]c5c4)nc23)CC1 as the compound, how does the IC50 read?
**A.** The IC50 was less than 300 nM.

**Q.** With Cc1cc2nc[nH]c2cc1Nc1ncc2cccc(O[C@H]3CC[C@@H](O)CC3)c2n1 as the compound, how does the IC50 read?
**A.** The IC50 was “in the range around 650 nM”.

**Q.** Which IC50 does the source give for O[C@H]1CC[C@@H](Oc2c(F)ccc3cnc(Nc4ccc5ncccc5c4)nc23)CC1 here?
**A.** The IC50 was less than 300 nM.

**Q.** For Cc1ccc2cnc(Nc3ccc4nc[nH]c4c3)nc2c1O[C@H]1CC[C@@H](O)CC1, which IC50 is on record?
**A.** The IC50 was “in the range around 650 nM”.

**Q.** Which IC50 does the source give for O[C@H]1CC[C@@H](Oc2cccc3cnc(Nc4cccc5cnccc45)nc23)CC1 here?
**A.** The IC50 was “in the range around 650 nM”.

**Q.** Which IC50 does the source give for O[C@H]1CC[C@@H](Oc2cccc3cnc(Nc4ccc5cnccc5c4)nc23)CC1 here?
**A.** Its IC50 is “in the range around 650 nM”.

**Q.** Which IC50 does the source give for OCc1cc(Nc2ncc3cccc(O[C@H]4CC[C@@H](O)CC4)c3n2)cc2[nH]cnc12 here?
**A.** The IC50 was less than 300 nM.

**Q.** Which IC50 does the source give for C[C@H](O)c1nc2ccc(Nc3ncc4cccc(O[C@H]5CC[C@@H](O)CC5)c4n3)cc2[nH]1 here?
**A.** The IC50 was “in the range around 650 nM”.

**Q.** Which IC50 does the source give for O[C@H]1CC[C@@H](Oc2c(F)ccc3cnc(Nc4ccc5ncsc5c4)nc23)CC1 here?
**A.** The IC50 was less than 300 nM.

**Q.** Which IC50 does the source give for O[C@H]1CC[C@@H](Oc2cccc3cnc(Nc4ccc5[nH]c(CN6CCCC6)nc5c4)nc23)CC1 here?
**A.** Its IC50 is less than 300 nM.

**Q.** With OCc1n[nH]c2cc(Nc3ncc4ccc(F)c(O[C@H]5CC[C@@H](O)CC5)c4n3)ccc12 as the compound, how does the IC50 read?
**A.** Its IC50 is less than 300 nM.

**Q.** For COCc1nc2ccc(Nc3ncc4cccc(O[C@H]5CC[C@@H](O)CC5)c4n3)cc2[nH]1, which IC50 is on record?
**A.** The IC50 was “in the range around 650 nM”.

**Q.** With O[C@H]1CC[C@@H](Oc2cccc3cnc(Nc4ccc5scnc5c4)nc23)CC1 as the compound, how does the IC50 read?
**A.** Its IC50 is less than 300 nM.

**Q.** For O[C@H]1CC[C@@H](Oc2cccc3cnc(Nc4ccnc5ccccc45)nc23)CC1, which IC50 is on record?
**A.** The IC50 was less than 300 nM.

**Q.** With O[C@H]1CC[C@@H](Oc2cccc3cnc(Nc4ccc5nc[nH]c5c4)nc23)CC1 as the compound, how does the IC50 read?
**A.** Its IC50 is less than 300 nM.

**Q.** With O[C@H]1CC[C@@H](Oc2cccc3cnc(Nc4ccc5ccncc5c4)nc23)CC1 as the compound, how does the IC50 read?
**A.** Its IC50 is “in the range around 2000 nM”.

**Q.** With Cc1nc2ccc(Nc3ncc4ccc(Br)c(O[C@H]5CC[C@@H](O)CC5)c4n3)cc2[nH]1 as the compound, how does the IC50 read?
**A.** The IC50 was “in the range around 650 nM”.

**Q.** Which IC50 does the source give for OCc1nc2cc(Nc3ncc4cccc(O[C@H]5CC[C@@H](O)CC5)c4n3)ccc2[nH]1 here?
**A.** Its IC50 is “in the range around 650 nM”.

**Q.** For Cc1nc2c(C)cc(Nc3ncc4cccc(O[C@H]5CC[C@@H](O)CC5)c4n3)cc2[nH]1, which IC50 is on record?
**A.** The IC50 was “in the range around 650 nM”.

**Q.** With Cc1ccc2cc(Nc3ncc4cccc(O[C@H]5CC[C@@H](O)CC5)c4n3)ccc2n1 as the compound, how does the IC50 read?
**A.** The IC50 was “in the range around 650 nM”.

**Q.** With COc1ccc2c(Nc3ncc4cccc(O[C@H]5CC[C@@H](O)CC5)c4n3)ccnc2c1 as the compound, how does the IC50 read?
**A.** The IC50 was “in the range around 650 nM”.
